Experimental data reported in ChEMBL document CHEMBL4739718, “Substituted 5-cyclopropyl-1h-pyrazol-3-yl-amine derivatives as selective cdk12/13 inhibitors” (2020).

Legend:
[1] = target: T1, Cyclin-dependent kinase 7 (Homo sapiens, UniProt P50613); test: Inhibition of CDK7 (unknown origin) assessed as reduction in ATP-dependent phosphorylation of ULight-myelin basic protein substrate peptide incubated for 60 mins by LANCE TR-FRET assay
[2] = target: Cyclin-dependent kinase 12 (Homo sapiens) (UniProt Q9NYV4); test: Binding affinity to CDK12 in human Jurkat cells assessed as target occupancy level incubated for 2 hrs by measuring Bio-THZ531 bound protein level by spectrophotometry based plate based target engagement assay; format: cell-based
[3] = target: T1, Cyclin-dependent kinase 7; test: Binding affinity to CDK7 in human Jurkat cells assessed as target occupancy level incubated for 2 hrs by measuring Bio-THZ531 bound protein level by spectrophotometry based plate based target engagement assay; format: cell-based

T1 sequence (P50613 whole entry): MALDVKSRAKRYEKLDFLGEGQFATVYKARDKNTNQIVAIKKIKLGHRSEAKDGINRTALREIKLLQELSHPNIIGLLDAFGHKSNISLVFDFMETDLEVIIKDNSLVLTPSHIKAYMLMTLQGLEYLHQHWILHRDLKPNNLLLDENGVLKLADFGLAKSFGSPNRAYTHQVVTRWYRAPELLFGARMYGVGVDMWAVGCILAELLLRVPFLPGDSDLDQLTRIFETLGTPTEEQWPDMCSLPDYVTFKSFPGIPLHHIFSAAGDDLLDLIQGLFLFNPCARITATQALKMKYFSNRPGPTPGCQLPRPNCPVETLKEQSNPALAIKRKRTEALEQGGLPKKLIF
Chain of Cyclin-dependent kinase 12 (Homo sapiens) (Q9NYV4 whole entry, looked up): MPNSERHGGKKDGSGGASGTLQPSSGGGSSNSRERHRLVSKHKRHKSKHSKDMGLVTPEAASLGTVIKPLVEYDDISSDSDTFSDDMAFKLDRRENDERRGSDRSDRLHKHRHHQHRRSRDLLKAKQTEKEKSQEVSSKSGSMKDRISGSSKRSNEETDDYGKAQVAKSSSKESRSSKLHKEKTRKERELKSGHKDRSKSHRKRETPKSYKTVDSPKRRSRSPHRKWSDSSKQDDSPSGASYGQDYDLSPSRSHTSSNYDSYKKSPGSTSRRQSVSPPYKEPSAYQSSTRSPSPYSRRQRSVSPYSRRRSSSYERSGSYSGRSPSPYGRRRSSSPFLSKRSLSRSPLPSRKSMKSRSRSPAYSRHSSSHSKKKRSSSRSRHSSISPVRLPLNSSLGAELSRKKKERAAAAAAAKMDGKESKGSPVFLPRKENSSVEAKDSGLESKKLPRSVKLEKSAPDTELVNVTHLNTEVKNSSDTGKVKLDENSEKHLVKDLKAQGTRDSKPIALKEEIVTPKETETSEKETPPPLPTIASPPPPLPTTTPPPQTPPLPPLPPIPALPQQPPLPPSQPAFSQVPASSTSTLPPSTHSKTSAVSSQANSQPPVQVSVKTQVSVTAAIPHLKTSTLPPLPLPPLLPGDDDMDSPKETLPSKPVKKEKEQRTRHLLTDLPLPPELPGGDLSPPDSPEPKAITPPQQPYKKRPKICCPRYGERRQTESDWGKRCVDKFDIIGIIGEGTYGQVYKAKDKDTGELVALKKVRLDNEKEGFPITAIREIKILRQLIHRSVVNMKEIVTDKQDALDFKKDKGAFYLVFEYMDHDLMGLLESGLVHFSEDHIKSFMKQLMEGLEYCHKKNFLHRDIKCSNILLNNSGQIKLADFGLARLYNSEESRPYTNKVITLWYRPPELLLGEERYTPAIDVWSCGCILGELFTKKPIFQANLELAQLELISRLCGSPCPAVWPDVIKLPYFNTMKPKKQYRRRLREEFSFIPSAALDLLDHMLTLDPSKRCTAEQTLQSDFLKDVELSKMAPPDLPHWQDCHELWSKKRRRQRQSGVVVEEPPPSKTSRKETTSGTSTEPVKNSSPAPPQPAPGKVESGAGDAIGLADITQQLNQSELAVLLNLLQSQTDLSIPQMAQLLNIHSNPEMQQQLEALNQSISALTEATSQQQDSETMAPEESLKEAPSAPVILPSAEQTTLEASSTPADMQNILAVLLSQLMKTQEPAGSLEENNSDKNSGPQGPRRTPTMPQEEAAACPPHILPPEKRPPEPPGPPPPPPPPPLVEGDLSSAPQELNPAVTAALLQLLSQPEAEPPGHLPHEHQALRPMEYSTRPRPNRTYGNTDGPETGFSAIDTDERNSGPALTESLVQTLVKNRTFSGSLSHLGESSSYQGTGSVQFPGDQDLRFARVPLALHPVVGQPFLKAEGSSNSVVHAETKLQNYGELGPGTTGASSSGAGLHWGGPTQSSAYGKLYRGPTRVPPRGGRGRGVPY

Row | SMILES | IC50 [1] [µM] | Occ50 [2] [µM] | Occ50 [3] [µM]
1 | C=CC(=O)NCc1ccc(-c2ccc(C(C)C(=O)Nc3cc(C4CC4)[nH]n3)cn2)cn1 (stereo unspecified) | > 10 |  | 
2 | CC(C(=O)Nc1cc(C2CC2)[nH]n1)c1ccc(-c2ccc(NC(=O)/C=C/CN3CCOCC3)cc2)cc1 (stereo in doubt; 12) | > 10 |  | 
3 | C=CC(=O)NCc1ccc(-c2ccc([C@H](C)C(=O)Nc3cc(C4CC4)[nH]n3)cc2)cn1 |  | 0.022 | > 2
4 | C=CC(=O)NCc1ccc(-c2ccc(C(C)C(=O)Nc3cc(C4CC4)[nH]n3)cc2)cn1 (stereo unspecified) |  | 0.23 | 0.61
